# Patent US20230405075A1, “PR[…] EXTRACT OR ITS ISOLATED ALKALOIDS AND CANNABIS EXTRACT OR ITS ISOLATED CANNABINOIDS, AND COSMETIC AND/OR PHARMACEUTICAL USE THEREOF” (HERBA INVEST, PTE. LTD., priority 2020, published 2023)
# Assay: Franz cell diffusion assay, transcutaneous permeation
# Type: in vitro ADME, porcine
# Conditions: in the presence of the combined extracts
# Method: The transcutaneous permeation of w/o creams according to Examples 2 and 3 were evaluated by using the Franz cell diffusion assay and compared with the permeation of w/o creams containing Mitragyna alkaloids only and Cannabis cannabinoids only, according to examples 4 and 5.
# As known, Franz cell diffusion assay is the most common and reliable method to evaluate the transcutaneous permeation of molecules. Such an assay is well known in the art and a detailed description is not necessary.
# The assay conditions were as follows: • cells used: 0.9 and 1.4 mm diameter. • membrane: porcine ear skin, 1 mm thickness. • temperature of incubation: 32° C.
# The results of the evaluations are shown in FIG. 1, where the different bars relate to: • a cream according to Example 4, with 1% Mitragyna alkaloids; • a cream according to Example 5, with 1% cannabinoids; • a cream according to Example 2, containing 0.5% purified Mitragyna alkaloids and 0.5% cannabinoids; • a cream with enhancer according to Example 3, also containing 0.5% purified Mitragyna alkaloids and 0.5% cannabinoids, • respectively.
# The particular w/o cream according to Example 2 used in the evaluation of transcutaneous permeation had the following composition (percentages in weight): • Diisostearoyl Polyglyceryl-3 Dimer Dilinoleate: 3% • Synthetic Beeswax: 0.2% • Hydrogenated Castor Oil: 0.3% • Paraffinum liquidum: 7% • Isopropyl Myristate: 7% • Hydrogenated polyisobutene: 7.5% • Aqua (water): 60% • Magnesium sulphate heptahydrate: 1% • Mitragyna purified extract (or isolated alkaloids) alcoholic solution: the amount/concentration resulting in a 0.5% alkaloid concentration of in the final formulation; • Cannabis purified extract (or isolated cannabinoids) alcoholic solution: the amount/concentration resulting in a 0.5% […] concentration in the final formulation.
row,SMILES,concentration detected in Franz cell receptor (order of selective passage)
1,C=C(C)[C@@H]1CCC(C)=C[C@H]1c1c(O)cc(CCCCC)cc1O [cannabidiol],increase in concentration
2,C=C[C@H]1CN2CCc3c([nH]c4cccc(OC)c34)[C@H]2C[C@@H]1/C(=C\OC)C(=O)OC [isopaynantheine],highest concentrations detected
3,CC[C@@H]1CN2CCc3c([nH]c4cccc(OC)c34)[C@@H]2C[C@@H]1/C(=C\OC)C(=O)OC [mitragynine],in lower percentage
4,C=C[C@H]1CN2CCc3c([nH]c4cccc(OC)c34)[C@@H]2C[C@@H]1/C(=C\OC)C(=O)OC [paynantheine],in lower percentage
5,CC[C@@H]1CN2CCc3c([nH]c4cccc(OC)c34)[C@H]2C[C@@H]1/C(=C\OC)C(=O)OC [speciociliatine],highest concentrations detected
